The text below walks through data of US9931309B2, “Curcumin-sophorolipid complex” (COUNCIL OF SCIENTIFIC & INDUSTRIAL RESEARCH, priority 2014, dated 2018).

One data set deals with MDA-MB-231 cells. As to the kind of experiment: MTT cytotoxicity assay in MDA-MB-231 cells. The class given is cell-based. How it is done: (§1) All the experiments were performed in triplicates and repeated twice and the data has been presented as mean±SD. Statistical analysis was conducted with the Graph Pad 4 prism program using one-way ANOVA. The p values used for comparisons were <0.05. IC50 values were calculated using Kyplot software.
(§2) In order to determine whether acidic sophorolipid enhanced the bioavailability of Curcumin in cancerous cell lines, the cytotoxic potential of the aqueous SL(A)+Cur complex was tested in breast cancer lines MCF-7 and MDA-MB-231 and was compared with that of aqueous SL(A), Cur in water, and Cur dissolved in ethanol, the latter was used as a positive control.
(§3) Cyto-toxicity analysis of the present curcumin-SL(A) complex was performed using mammalian breast cancer cell lines by the MTT dye uptake assay. […] MTT solution (5 mg/ml) was added to each well and the cells were cultured for another 4 h at 37° C. in a 5% CO2 incubator. The formazan crystals formed were dissolved by addition of 90 μL of SDS-DMF (20% SDS in 50% DMF). After 15 min, the concentration of colored formazan derivative was determined by measuring optical density (OD) using the ELISA microplate reader (Biorad, Hercules, Calif.) at 570 nm (OD: 570-630 nm). The percentage viability was calculated as: % Viability=[OD of treated cells/OD of control cells]×100 Percentage Viability Observed Post Treatment
(In general: Tetrazolium assays rely on reduction of a dye to a coloured formazan, in cell work by metabolically active cells.)

Data set [1] can be described thus: Dynamic Light Scattering (DLS) measurements, particle size. In kind it is physicochemical. The settings on record: 10 mg dissolved in 10 ml H2O. How it is done: The Dynamic Light Scattering (DLS) measurements were carried using the out on Brookhaven Instrument model 90 Plus Particle Size Analyzer. The solutions, i.e. Cur, SL(A) and the present SL(A)+Curcumin nano-assembly were analyzed at a constant shutter opening diameter in the DLS apparatus. […] This was also confirmed with the results obtained by SEM and TEM analysis depicted in FIG. 4. Field emission scanning electron microscopy images acquired on FEI QUANTA 200 microscope, equipped with a tungsten filament gun, operating at WD 10.6 mm and 20 kV. A 10 μL aliquot of all three sample solution were placed on silicon wafer and fixed on copper stubs with help of carbon tape. The samples were dried at room temperature for overnight and images were recorded without gold coating.

The subject of another data set is MCF-7 cells. As to the kind of experiment: cells. The class given is cell-based. How it is done: as §1, §2, §3
The nature of another data set: Zeta potential. In kind it is physicochemical. The settings on record: dispersions without any dilution. Here is the method:
The surface charges of the SL(A), Cur and SL(A)+Cur were determined using a zeta potential analyzer (Brookhaven Instruments Corporation, NY). The average zeta potentials of the nano self-assembly dispersions were determined without any dilution.

Data set [2] is described as follows: Appearance / solubilization of aqueous test solutions. In kind it is physicochemical. The settings on record: 100 μg/ml.
Procedure: Optical properties of the present complex SL(A)+ curcumin complex were determined by UV-Vis and Photoluminescence studies analysis. Accordingly, the optical properties of SL(A), curcumin and the present sophorolipid-curcumin (SL(A)+Cur) self-assembly were compared. UV-Vis absorption spectra were recorded on Varian CARY 100 Bio UV-Vis spectrophotometer respectively, with 10 mm quartz cell at 25±0.1° C. For recording the spectra, 3 ml solutions of SL(A), Cur and SL(A)+Cur solution were prepared with having a concentration of 100 μg/ml. The solutions of this were mixed gently and subsequently the spectra were recorded.
Visible differences in the appearance of each of the test solutions were observed.

Structures are written as SMILES.

On to `COc1cc(/C=C/C(=O)CC(=O)/C=C/c2ccc(O)c(OC)c2)ccc1O` [Cur, diferuloylmethane], for which, in the data set with MDA-MB-231 cells, the “concentration at which cytotoxicity is exhibited” value was determined as 20000 ng/mL. The “activity against the cancerous cell lines” value with MDA-MB-231 cells (MDA-MB-231) and with MCF-7 cells (MCF-7) was “no activity” in each case. For the same compound, the “% viability” value with MDA-MB-231 cells (MDAMB 231, 5 μg/ml) is listed as 100%; with MDA-MB-231 cells (MDAMB 231, 10 μg/ml), 100%; with MDA-MB-231 cells (MDAMB 231, 20 μg/ml), 100%; in the data set on MDA-MB-231 cells (MDAMB 231, 40 μg/ml) it was 95%; in the data set with MDA-MB-231 cells (MDAMB 231, 80 μg/ml) it was 93%; in the data set with MDA-MB-231 cells (MDAMB 231, 120 μg/ml) it was 91%. For the same compound, the hydrodynamic radius result was “about 818 nm” in data set [1] and 818.6 nm in data set [1] (listed as Curcumin). Besides, the viability (usually a per cent measure of how many cells are alive, often set against a control) at 5 µg/mL in the data set on MCF-7 cells (Homo sapiens, MCF7) was found to be 100%. In addition, the viability at 10 µg/mL in the data set with MCF-7 cells (Homo sapiens, MCF7) came to 100%. The same compound displayed a viability at 20 µg/mL with MCF-7 cells (Homo sapiens, MCF7) of 100%. The viability at 40 µg/mL in the data set with MCF-7 cells (Homo sapiens, MCF7) was 95%. In the data set with MCF-7 cells (Homo sapiens, MCF7), this compound showed a viability at 80 µg/mL of 93%. For the same compound, in the data set on MCF-7 cells (Homo sapiens, MCF7), the viability at 120 µg/mL stood at 91%. For the same compound, the “concentration from which anticancer activity (growth inhibition) commences” value in the data set on MCF-7 cells (MCF-7, FIG. 7(a), for the complex as concentration of Cur) stood at 40 µg/mL. For the same compound, in the data set with MCF-7 cells (MCF-7, low to moderate dose range (5-20 μg/ml)), the “relative toxicity at low to moderate dose” value is “more toxic”. The zeta potential in the data set “Zeta potential” is reported as −15.14 mV. Besides, in data set [2], the “appearance of the solution” value is “turbid”.
